In article PMC4428838, “Optimization of Invasion-Specific Effects of Betulin Derivatives on Prostate Cancer Cells through Lead Development” (PLoS ONE, 2015):

What was measured:
Format in all cases: cell-based
[1] = test system: PC3 cells; assay: Cell morphology and actin cytoskeleton in 2D monolayer culture; conditions: PC3, 2D, 72h
Protocol: As a control, we also tested morphologies treated with the same panel of anti-invasive compounds 4, 5, 6, 16 and 20 as well as betulin (1) on PC3 cells grown in 2D monolayer cultures (S9 Fig).
Supplementary file pone.0126111.s009.tif: S9 Fig Morphologies of PC-3, LNCaP and Ep156T cells in 2D monolayer culture, exposed 72h to selected betulin derivatives. Actin cytoskeleton (filamentous or F- actin) is stained green (LifeAct), nuclei with a red dye (confocal microscope images, 40× objective, scale bar shown for each panel on the right lower corner). (TIF) Click here for additional data file.

[2] = test system: actin cytoskeleton of PC-3, LNCaP and Ep156T spheroids; assay: F-actin cytoskeleton (phalloidin staining) in 3D spheroids; conditions: after 48 hours of exposure; seen in Ep156T acini and PC-3 spheroids, not LNCaP
Description: […] […] For phenotypic comparisons, we tested a panel of reference compounds targeting Akt, Rac, ROCK, Src, and other pathways, broadly linked to the actin cytoskeleton.
Fig 8 3D morphologies of prostate spheroids, exposed to selected betulin derivatives and captured with a confocal microscope. Actin cytoskeleton (filamentous or F-actin) is stained green (phalloidin), nuclei with a red dye (confocal microscope images, 40× objective, scale bar shown for each panel on the right lower corner).

[3] = test system: PC-3; assay: Wound healing assay in 2D monolayer culture (IncuCyte); conditions: for wound healing 50% cut-off concentration: 2D monolayer, printed in Fig 4D; for reduction of wound closure: at 300 nM, after 64 hours, 2D
Protocol: Cells were cultured on ImageLock plates (Essen Bioscience, Ann Arbor, MI, USA) until fully confluent and scratched with a WoundMaker instrument (Essen Bioscience). All detached cells were removed by aspiration and medium supplemented with experimental compounds was added. Wound closure was monitored and quantified with the IncuCyte live-cell imager (Essen Bioscience).
A) Graph showing the transition of PC-3 spheroids from symmetrical acini to irregular invasive structures over 6 days, as measured by general symmetry (roundness %). […] B) Conventional wound healing assay performed in monolayer culture over a period of 64 hours. Wound closure is measured as relative wound density i.e. percentage of original wound area reclaimed by migrating cells. […] (EPS) Click here for additional data file.

[4] = test system: LAPC-4; assay: Secondary 3D screen (spheroid size, complexity, cell death); conditions: yellow and red clusters
Description: Next, the 25 selected betulin derivatives depicted in Figs 1–3 including control compounds were again thoroughly tested across the same panel of prostate-derived cell lines already used in the preliminary, 2D high-throughput screen. The resulting dendrograms were either generated separately for each cell line (S4 Fig), combined into a single dendrogram (Fig 5A), or shown as reduced organoid sizes (area; Fig 5B).
Fig 5 Secondary 3D screens. Experimental betulin derivatives and control compounds were tested across a panel of prostate cancer lines (LNCaP, LAPC-4) and non-transformed, prostate epithelial cells (EP156T) in 3D culture. A) The dendrogram is based on three main morphological parameters and combines all data from primary and secondary 3D screens. […] B) Boxplots showing the impact of selected compounds on spheroid size (Area). Data scaling: as described in Fig 4 C) Effects of all betulin derivatives and control compounds on cell death (number of dead cells).
All 3D cultures were done in growth factor-free Matrigel Basement-membrane Matrix (Corning Inc., New York, NY, USA) using 96-well Angiogenesis μ-plates (ibidi GmbH, Munich, Germany) as described before.[38] “Sandwich” assays in short: bottom wells of cooled Angiogenesis plates were filled with 10 μL 4 mg/mL Matrigel, centrifuged for 20 min 200 g and incubated at 37°C temperature for approximately 30–60 min or until the ECM had polymerized. 1,000–1,500 cells were mixed in 2 mg/mL ECM-medium, and 20 μL of cell suspension was added in each well. The plates were centrifuged for 10 min at 100 g, or until the cells had settled on top of the lower ECM. Finally, the outer wells and side reservoirs were filled with water for humidification, and the culture plates placed into the incubator for 3–4 h or overnight. The following day, 60 μL of cell culture medium were added; refreshed every third day by carefully aspirating the medium. This “sandwich” setting allows almost unifocal alignment of cells and 3D structures in a single optical plane, thus reducing the time required for confocal stack imaging.
All control compounds were purchased from Selleck (Munich, Germany), except for staurosporine (Sigma-Aldrich, St. Louis, MO, USA) and Y-27632 (Tocris, Bristol, UK) and dissolved in dimethyl sulfoxide (DMSO) as a vehicle at 10 mM. In the primary and secondary 3D screens, experimental and control compound exposures were performed in triplicates. Four concentrations for each compound were applied (0.03, 0.1, 0.3 and 1 μM). Compound treatments were initiated four days after cell embedding, and continued for six days after which spheroids were stained and imaged.
Supplementary file pone.0126111.s004.eps: S4 Fig Secondary screens. Dendrograms for A) LNCaP, B) LAPC-4, and C) Ep156T betulin screens in 3D culture have been constructed using three main read-outs: spheroid size, spheroid complexity, and cell death. […] (EPS) Click here for additional data file.

[5] = test system: PC-3, LNCaP, LAPC-4, Ep156T; assay: Primary and secondary 3D screens combined across the cell line panel; conditions: cell lines other than PC-3, 3D, 300 nM or lower (except compound 15)
Protocol: Fig 5 Secondary 3D screens. Experimental betulin derivatives and control compounds were tested across a panel of prostate cancer lines (LNCaP, LAPC-4) and non-transformed, prostate epithelial cells (EP156T) in 3D culture. A) The dendrogram is based on three main morphological parameters and combines all data from primary and secondary 3D screens. Effective compound treatments are indicated in red and yellow, yellow being the most invasion-specific. B) Boxplots showing the impact of selected compounds on spheroid size (Area). Data scaling: as described in Fig 4 C) Effects of all betulin derivatives and control compounds on cell death (number of dead cells).
In order to assist functional categorization of our betulin derivatives, we combined all data into a single dendrogram, shown in Fig 5A. In addition, multiparametric representation of all experimental data as a single heatmap is highly informative (S5 Fig) and a potent way to illustrate the effects of compounds on growth, structural complexity and cell death across multiple cell lines. […] However, at lower concentrations, these compounds may act as potent and specific inhibitors of cell invasion and motility.
Supplementary file pone.0126111.s005.eps: S5 Fig Primary and secondary screens. […] The main read-outs (Area = Size, Complexity = Invasiveness, Red = Cell death) are shown in their own columns. Data scaling: DMSO control has been given a value 0 whereas paclitaxel control is valued -100 or 100 depending on the read-out. Color key is located in the upper right corner. (EPS) Click here for additional data file.
Supplementary file pone.0126111.s006.tif: S6 Fig Confocal images from primary and secondary betulin screens. Viable cells have been stained with calcein AM (green) and dead cells with ethidium homodimer-2 (red) (5× objective, maximum intensity projections, scale bar = 100 μm). (TIF) Click here for additional data file.

Structure (SMILES)	morphology and actin cytoskeleton of cells in 2D monolayer [1]	organization of actin cytoskeleton in 3D spheroids [2]	concentration required in 2D culture for effects comparable to 3D ([3]; 2D wound healing)	efficacy in 3D LAPC-4 culture (dendrogram clusters) [4]	effects on the other cell lines at anti-invasive concentrations [5]	wound healing 50% cut-off concentration [3]	reduction of wound closure [3] [%]
C=C(C)[C@@H]1CC[C@]2(C(=O)O)CC[C@]3(C)C(CCC4[C@@]5(C)Cc6cnoc6C(C)(C)C5CC[C@]43C)C12 (stereo partly drawn) [Compound 5]	No morphologies and visible effects on the actin cytoskeleton	effectively disrupted the organization of actin cytoskeleton	higher than 1 μM	–	–	–	–
CC(=O)O[C@H]1C(=O)[C@@]2(C)[C@H]([C@H](OC(=O)c3ccccc3)[C@]3(O)C[C@H](OC(=O)[C@H](O)[C@@H](NC(=O)c4ccccc4)c4ccccc4)C(C)=C1C3(C)C)[C@]1(OC(C)=O)CO[C@@H]1C[C@@H]2O [Paclitaxel, paclitaxel, reference compound]	–	–	–	efficacy of all positive controls	–	–	–
CC(C)[C@@H]1CC[C@]2(C(=O)O)CC[C@]3(C)C(CCC4[C@@]5(C)Cc6cnoc6C(C)(C)C5CC[C@]43C)C12 (stereo partly drawn) [Compound 4]	No morphologies and visible effects on the actin cytoskeleton	–	–	most active	no noticeable effects on the other cell lines	ca. 0.3 μM	50
C=C(C)[C@@H]1CC[C@]2(C(=O)O)CC[C@]3(C)C(CCC4[C@@]5(C)Cc6c[nH]nc6C(C)(C)C5CC[C@]43C)C12 (stereo partly drawn) [Compound 6]	No morphologies and visible effects on the actin cytoskeleton	effectively disrupted the organization of actin cytoskeleton	–	most active	no noticeable effects on the other cell lines	–	–
C=C(C)[C@@H]1CC[C@]2(C(=O)O)CC[C@]3(C)C(CCC4[C@@]5(C)Cc6ncccc6C(C)(C)C5CC[C@]43C)C12 (stereo partly drawn) [Compound 20]	No morphologies and visible effects on the actin cytoskeleton	effectively disrupted the organization of actin cytoskeleton	–	most active	no noticeable effects on the other cell lines	ca. 0.3 μM	50
C=C(C)[C@@H]1CC[C@]2(C(=O)O)CC[C@]3(C)C(CCC4[C@@]5(C)Cc6cccnc6C(C)(C)C5CC[C@]43C)C12 (stereo partly drawn) [Compound 19]	–	–	–	most active	no noticeable effects on the other cell lines	–	–
